# According to patent publication US5371077A, “Side chain derivatized 15-oxygenated sterols, methods of using them and a process for preparing them” (William Marsh Rice University, priority 1992, dated 1994):
# Assays:
# HMG-CoA reductase = assay: Effects of sterols on HMG-CoA reductase activity in CHO-K1 cells; assay type: cell-based; settings: 4 hours
# Protocol: Effects of side chain derivatized 15-oxygenated sterols on HMG-CoA reductase activity in CHO-K1 cells
# The effects of the sterols on HMG-CoA reductase activity were determined on CHO-K1 cells. The cells were obtained from the American Type Culture Collection (Rockville, Md.). (3RS)-[3-^14 C]HMG-CoA (56 mCi per mmol) and (3RS)-[2-^3 H]mevalonolactone (176 mCi per mmol) were purchased from Amersham Corporation (Arlington Heights, Ill.). Lux tissue culture plasticware was from Miles Scientific (Elkhart, Ind.). Trypsin was obtained from Gibco Laboratories (Grand Island, N.Y.) and Ham's F12 medium, Proc. Natl. Acad. Sci. U.S.A., 53, 288-293 (1965), and phosphate buffered saline (PBS; KCl, 2.7 mM; KH2 PO4, 1.2 mM; NaCl, 137 mM; and Na2 HPO4, 8.1 mM) were obtained from Irvine Scientific (Irvine, Calif.). Fetal calf serum was purchased from Whittaker M.A. Bioproducts (Elkhart, Ind.).
# For cell culture experiments, the sterols and C24 acid were added as ethanolic solutions to Ham's F12 medium supplemented with 5% delipidated fetal calf serum (lipid-deficient medium) and allowed to equilibrate for at least 6 hours at room temperature prior to storage at 4° C. Protein in detergent-solubilized extracts of cultured cells was assayed by the Peterson modification, Anal. Biochem., 83, 346-356, of the method of Lowry et al., J. Biol. Chem, 193, 265-275.
# The CHO-K1 cells were maintained in Ham's F12 medium supplemented with 5% fetal calf serum (lipid-rich medium) in a humidified atmosphere of 5% CO2 -95% air at 37° C. Each experiment was initiated by inoculating […] cells into 100-mm dishes containing the lipid-rich medium (10 ml), followed by incubating for 48 hours. The medium was aspirated and, after rinsing the plates with PBS (10 ml), the cells were incubated for 18 hours in lipid-deficient media (10 ml). The cells were then incubated with fresh lipid-deficient media (10 ml) containing various concentrations of the 15-oxygenated sterols (from 0.0 μM to 2.5 μM) for 4 hours. Cells were harvested by scraping, and detergent-solubilized cell preparations were obtained for assay of HMG-CoA reductase activity using the method of Brown, Dana and Goldstein, J. Biol. Chem, 249, 789-796. Replicate assays (n=3) were carried out as described by Pinkerton et al., J. Biol. Chem, 257, 1929-1936, except that the specific activity of (3RS)-[3-^14 C]HMG-CoA was 20,000 dpm per nmol.
# [1] = Effects of dietary administration of F7-15-ketosterol to rats: serum sterols; assay type: in vivo, rats (Sprague-Dawley, male); settings: rat
# Text: Effects of dietary administration of side chain derivatized 15-oxygenated sterols to rats
# Male rats (100-140 g) of the Sprague-Dawley strain were obtained from Harlan Sprague-Dawley (Houston, Tex.) and housed in pairs for 6 days on a light (6:00 AM-6:00 PM)--dark cycle and fed a ground basal diet (Purina Formulab 5008) and water ad libitum. The animals were then divided into groups of 8 animals each, such that the mean values of serum cholesterol and body weight were approximately the same. The animals were then housed individually and were provided diet and water ad libitum. Blood for serum sterol concentrations was obtained at ^~ 8:00 AM from tail vein on days 5 and 9.
# The experiment involved administration of 3β-hydroxy-25,26,26,26,27,27,27-heptafluoro-5α-cholest-8(14)-en-15-one (F7 -15-ketosterol) in basal diet as utilized previously in Schroepfer et al., Blochem. Biophys. Res. Commun., 78, 1227-233 (1977). 3β-Hydroxy-25,26,26,26,27,27,27-heptafluoro-5α-cholest-8(14)-en-15-one was administered at levels of 0.025%, 0.05%, 0.075, and 0.10% (by weight) in basal diet. Control rats received basal diet containing no added sterol.
# Serum cholesterol was measured by two methods. Day 0 levels were determined using a commercial assay kit ("Single Vial"; Boehringer Mannheim Diagnostics, catalog no. 236691). This methodology could not be applied to the determination of serum cholesterol in serum samples of rats treated with 3β-hydroxy-25,26,26,26,27,27,27-heptafluoro-5α-cholest-8(14)-en-15-one due to the presence of another sterol which also acted as a substrate for cholesterol oxidase. Accordingly, cholesterol levels in serum were determined by gas chromatography (GC). Routine capillary GC analyses of sterols in serum were made on a 0.1 μm Rtx 1701 column (15 m×0.25 mm ID; 14% cyanopropylphenyl, 86% methyl polysiloxane; Restek Corp., Bellefonte, Pa.). Stigmasterol was used as an internal standard. In addition, recovery of sterol after saponification and extraction was monitored through the use of an internal standard of [7(n)-^3 H]cholesteryl oleate. Routine saponification of sample (100 μl) involved treatment with 10% KOH in ethanol (500 μl) followed by extraction with hexane (3×1.5 ml). After evaporation to dryness under nitrogen, the samples were treated with BSTFA-pyridine (1:1, 200 μl) for 1 hour at room temperature under nitrogen. After evaporation to dryness under nitrogen, the silylated material was dissolved in hexane (500 μl) and aliquots (1 μl) were subjected to GC analysis.
Compound,HMG-CoA reductase activity (% of control activity) (HMG-CoA reductase; sterol concentration 0.1 μM),HMG-CoA reductase activity (% of control activity) (HMG-CoA reductase; sterol concentration 0.25 μM),HMG-CoA reductase activity (% of control activity) (HMG-CoA reductase; sterol concentration 0.5 μM),HMG-CoA reductase activity (% of control activity) (HMG-CoA reductase; sterol concentration 1.0 μM),HMG-CoA reductase activity (% of control activity) (HMG-CoA reductase; sterol concentration 2.5 μM),"Serum Sterols: Cholesterol ([1]; 0.025% in diet, day 5, control 2.60 ± 0.12)","Serum Sterols: Cholesterol ([1]; 0.025% in diet, day 9, control 2.62 ± 0.06)","Serum Sterols: Cholesterol ([1]; 0.050% in diet, day 5, control 2.60 ± 0.12)","Serum Sterols: Cholesterol ([1]; 0.050% in diet, day 9, control 2.62 ± 0.06)","Serum Sterols: Cholesterol ([1]; 0.075% in diet, day 5, control 2.60 ± 0.12)","Serum Sterols: Cholesterol ([1]; 0.075% in diet, day 9, control 2.62 ± 0.06)","Serum Sterols: Cholesterol ([1]; 0.100% in diet, day 5, control 2.60 ± 0.12)","Serum Sterols: Cholesterol ([1]; 0.100% in diet, day 9, control 2.62 ± 0.06)"
"C[C@H](CCC(=O)O)[C@H]1CC(=O)C2=C3CC[C@H]4C[C@@H](O)CC[C@]4(C)[C@H]3CC[C@@]21C [I, 3β-hydroxy-15-keto-5α-chol-8(14)-en-24-oic acid]",88.5 % of control activity,77.3 % of control activity,69.9 % of control activity,65.0 % of control activity,45.6 % of control activity,–,–,–,–,–,–,–,–
"CC(C)=CCC[C@@H](C)[C@H]1CC(=O)C2=C3CC[C@H]4C[C@@H](O)CC[C@]4(C)[C@H]3CC[C@@]21C [II, 3β-hydroxy-5α-cholesta-8(14),24-dien-15-one]",60.5 % of control activity,67.0 % of control activity,51.1 % of control activity,40.0 % of control activity,35.2 % of control activity,–,–,–,–,–,–,–,–
"C[C@H](CCCC(C)(C)O)[C@H]1CC(=O)C2=C3CC[C@H]4C[C@@H](O)CC[C@]4(C)[C@H]3CC[C@@]21C [III, 3β,25-dihydroxy-5α-cholest-8(14)-en-15-one]",66.4 % of control activity,56.2 % of control activity,50.2 % of control activity,34.8 % of control activity,23.7 % of control activity,–,–,–,–,–,–,–,–
"CC(C)C(O)CC[C@@H](C)[C@H]1CC(=O)C2=C3CC[C@H]4C[C@@H](O)CC[C@]4(C)[C@H]3CC[C@@]21C (stereo partly drawn) [IV, 3β,24-dihydroxy-5α-cholest-8(14)-en-15-one]",63.4 % of control activity,33.5 % of control activity,32.2 % of control activity,34.2 % of control activity,21.5 % of control activity,–,–,–,–,–,–,–,–
"C[C@H](CCCN(C)C)[C@H]1CC(=O)C2=C3CC[C@H]4C[C@@H](O)CC[C@]4(C)[C@H]3CC[C@@]21C [V, 3β-hydroxy-24-dimethylamino-5α-chol-8(14)-en-15-one]",87.1 % of control activity,85.4 % of control activity,73.3 % of control activity,53.5 % of control activity,35.0 % of control activity,–,–,–,–,–,–,–,–
"C[C@H](CCCC(F)(C(F)(F)F)C(F)(F)F)[C@H]1CC(=O)C2=C3CC[C@H]4C[C@@H](O)CC[C@]4(C)[C@H]3CC[C@@]21C [VI, 3β-hydroxy-25,26,26,26,27,27,27-heptafluoro-5α-cholest-8(14)-en-15-one]",68.3 % of control activity,49.1 % of control activity,35.6 % of control activity,29.0 % of control activity,22.2 % of control activity,2.02 ± 0.12 mM,2.10 ± 0.10 mM,2.06 ± 0.07 mM,1.83 ± 0.07 mM,1.76 ± 0.05 mM,1.76 ± 0.12 mM,1.97 ± 0.09 mM,1.90 ± 0.10 mM
